Test results taken from ChEMBL document CHEMBL1124675, “Synthesis and biological evaluation of a monocyclic, fully functional analogue of compactin” (J Med Chem, 1989).

Target: T1, 3-hydroxy-3-methylglutaryl-coenzyme A reductase (Rattus norvegicus, UniProt P51639)
T1 sequence (P51639 whole entry): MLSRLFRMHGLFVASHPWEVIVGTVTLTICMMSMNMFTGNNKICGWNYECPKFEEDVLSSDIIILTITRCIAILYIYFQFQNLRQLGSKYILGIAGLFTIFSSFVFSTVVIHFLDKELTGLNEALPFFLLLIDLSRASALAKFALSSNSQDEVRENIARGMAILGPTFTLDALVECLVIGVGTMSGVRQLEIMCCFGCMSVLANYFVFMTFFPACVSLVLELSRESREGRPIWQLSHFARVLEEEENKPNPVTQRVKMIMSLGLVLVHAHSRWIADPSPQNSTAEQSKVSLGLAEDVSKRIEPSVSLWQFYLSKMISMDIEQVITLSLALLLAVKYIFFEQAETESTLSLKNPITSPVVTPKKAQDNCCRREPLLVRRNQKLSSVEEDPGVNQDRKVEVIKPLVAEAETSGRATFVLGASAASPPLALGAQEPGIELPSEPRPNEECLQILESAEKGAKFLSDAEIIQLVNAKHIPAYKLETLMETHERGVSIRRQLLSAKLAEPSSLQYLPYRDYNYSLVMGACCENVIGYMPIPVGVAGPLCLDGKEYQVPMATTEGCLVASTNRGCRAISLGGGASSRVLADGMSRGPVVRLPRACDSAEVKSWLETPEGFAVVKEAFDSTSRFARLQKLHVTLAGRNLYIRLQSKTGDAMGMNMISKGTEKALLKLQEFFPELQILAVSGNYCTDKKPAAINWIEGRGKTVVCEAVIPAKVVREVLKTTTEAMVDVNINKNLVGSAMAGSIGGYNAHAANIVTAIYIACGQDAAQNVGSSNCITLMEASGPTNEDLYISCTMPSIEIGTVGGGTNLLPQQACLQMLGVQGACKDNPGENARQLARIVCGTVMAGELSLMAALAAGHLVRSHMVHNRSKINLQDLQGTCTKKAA
Assay: Ability of compound to inhibit the activity of 3-hydroxy-3-methylglutarylcoenzyme A(HMGR) reductase in rat liver microsomes
Parameters: species or system Microsome

| Compound | IC50 [µM] |
| --- | --- |
| CC[C@H](C)C(=O)O[C@H]1C[C@@H](C)C[C@@H]2C=C[C@H](C)[C@H](CCC(O)C[C@@H](O)CC(=O)O)C12 (stereo not given in full) | 0.0016 |
| O=C(O)C[C@H](O)CC(=O)CCc1ccccc1 | 1300 |

More lines, in order of falling IC50, values ahead:

| IC50 [µM] | Compound |
| --- | --- |
| 600 | O=C(O)CC(O)CC(O)CCc1ccccc1 (stereo not given) |
| 0.032 | CC[C@H](C)C(=O)O[C@H]1CCC=C2C=C[C@H](C)[C@H](CCC(=O)C[C@@H](O)CC(=O)O)C21 (stereo not given in full) |
| 0.013 | CC[C@H](C)C(=O)O[C@H]1CCC=C2C=C[C@H](C)[C@H](CCC(O)C[C@@H](O)CC(=O)O)C21 (stereo not given in full) |
